This note sets out measurements from patent publication US11466067B2 (priority 2019, dated 2022).

The nature of data set [1]: Surfactant evaluation under shear stress (visual, turbidity, SEC-HPLC). In kind it is physicochemical. The following applies: for SEC-HPLC forms of construct (HMW, dimer, monomer) with surfactant: 1×PBS, before/after vortexing. The procedure: Following vortexing, the solution was visually inspected. The sample without a surfactant was slightly hazy while the samples with the surfactant were clear after vortexing. The turbidity (340-360 nm) of the solution was assessed after vortexing.
SEC-HPLC was carried out on the IL-10 delivery construct formulations before (FIG. 93) and after (FIG. 94) vortexing (TABLE 48).

The test system of data set [2] is STAT3 phosphorylation. Briefly: pSTAT3 and hIL-10 immunofluorescence in intestine 40 min post oral gavage. The format is in vivo, rat. The procedure:
This observation is consistent with findings in mice that intestinal epithelial cells can express IL-10 receptors at their apical surface under certain conditions associated with development and maintenance of barrier function. […] In order to quantify how test articles affected intestinal IL-10 signal transduction pathways, image analysis was performed: high-throughput image batches were collected, segmented by epithelial versus Lamina propria localization, and then by cellular features.

Data set [3] in a line: Intraluminal injection in T-cell transfer colitis model, rhIL-10 ELISA. In kind it is in vivo, BALB/c and SCID mice. The following applies: 159 pmoles intraluminal. Here is the method: This study was conducted to examine the potential for the carrier protein to transport rhIL-10 from the intestinal lumen into the submucosal region in inflamed intestinal tissue. The T lymphocyte (T cell) transfer model was used as it is a well-established model of induced chronic colitis in mice and presents many of the essential immunological hallmarks observed in IBD patients. Nine BALB/c mice and twelve SCID mice, including nine with the colitis-like model of inflammation, were dosed with 20 μl of test article via intraluminal injection into the distal ileum and the proximal, middle and distal colon.
PBS vehicle was administered to healthy BALB/c mice and both healthy and induced colitis SCID mice (n=3/group). In each group, two mice were terminated 10 minutes after intraluminal injections, and one was terminated 40 minutes after intraluminal injections. Intestinal tissue and serum were collected. Collected tissue was fixed, embedded, sectioned and H&E stained for histological assessment of inflammatory status. ELISA analysis to measure rhIL 10 was performed on lysates prepared from intestinal tissue and serum (FIGS. 106A-106D).

Data set [4] deals with STAT3, IL-1Ra. Briefly: pSTAT3/STAT3 and systemic IL-1Ra in non-inflamed mice (ELISA MSD). In kind it is in vivo.
In data set [5] the test system is STAT3. The following applies: 20 min stimulation.
Data set [6] is described as follows: Salt screening for dimer stability (SE-HPLC). In kind it is physicochemical. The following applies: buffer exchange, data not shown. Here is the method:
Formulations were prepared with the delivery construct at 20 g/Lin 10 mM Sodium Phosphate at pH 7.0 with the salts and salt concentrations as indicated in Table 53. The percentage of the IL-10 delivery construct present in dimer form, monomer form, and high molecular weight aggregates (HMW Agg) was assessed by size exclusion HPLC as indicated previously.

The conditions of data set [7]: initial liquid formulation screen.
The test system of data set [8] is circulating cytokines, chemokines, growth factors. In kind it is in vivo, mice. The following applies: mouse, in vivo.
A short description of data set [9]: Single oral capsule dose in NHP: plasma caffeine by LC-MS/MS. The format is in vivo, Macaca fascicularis. Here is the method: In order to quantitate plasma caffeine levels, an LC-MS/MS detection system was employed. A 25-μL matrix aliquot was fortified with 25 μL of 2.00 μg/mL caffeine-trimethyl-^13C3 internal standard working solution. Analytes were isolated through supported liquid extraction (SLE). A portion of the eluate was transferred and evaporated under a nitrogen stream at approximately 45° C., and the remaining residue reconstituted with 500 μL of water/acetonitrile (95:5, v/v). The final extract was analyzed via HPLC with MS/MS detection using positive ion electrospray and reverse phase chromatography. Caffeine concentration was determined using similarly run calibration controls.
IL-10 delivery construct dosing at multiple fixed doses in non-naïve adult male Macaca fascicularis was conducted by Valley Biosystems (West Sacramento, Calif.). […] Dosing groups are described in TABLE 45.
Blood samples were collected in K2EDTA tubes from each animal pre-dose and at 0.5, 1, 2, 3, 4, 5, 6, 7, 8, and 24 hours post-dose. Animals were returned to home cages following the 2-hour sample collection. Following physical restraint, blood samples were collected via direct venous puncture using a cephalic, femoral or saphenous vein, which were processed to plasma and stored frozen at −60° C. until shipment.

Data set [10] in a line: Dimer purity during compaction/granulation (SEC). In kind it is physicochemical. The following applies: slugging/granulation formulation intermediates. The procedure: The compatibility of the IL-10 delivery construct was evaluated for the initial steps of tablet formation. Blending and compaction processes were conducted. Both roller compaction and slugging was conducted, with subsequent milling to granules in each case. In order to explore excipient functionality and compatibility, different excipients were included in the three formulations.
Roller compaction was conducted at 2 forces, and the resulting ribbons were individually granulated. Materials were reconstituted in PBS at 0.65 mg/mL SEQ ID NO: 5 and filtered with 0.2 um filter (Advantec) before SEC analysis. Samples were also incubated at 40° C. for two weeks before reconstitution and analysis.
The same analysis was conducted for the intermediates generated in the slugging/granulation process (TABLE 30). As well as the different compaction method, the slugging/granulation batch differed in binder and lubricant composition.

With polysorbate 80, in data set [1], the “SEC-HPLC forms of construct (HMW, dimer, monomer) with surfactant” value (“SEC-HPLC forms of construct” for short) is “increase in HMW aggregates and monomers”. With “rhIL-10: recombinant human IL-10 (SEQ ID NO: 2), commercial preparation used as comparator”, the “hIL-10 and pSTAT3 in intestinal tissue” value in [2] was “pSTAT3 induction in enterocytes but not in cells within the Lamina propria”. Further, in [3], the “rhIL-10 in serum of inflamed animals” value is listed as “minimal amounts”. Moreover, the “increase in ratio of pSTAT3 to total STAT3” value in data set [4] (construct 1 mg/kg, rhIL-10 0.9 mg/kg (equimolar), non-inflamed colon tissue) was “did not significantly alter”. Further, the “increase of systemic IL-1Ra” value in [4] (construct 10 mg/kg, rhIL-10 3 mg/kg (equimolar)) was “did not significantly increase”. Further, the “amplitude of pSTAT3/total STAT3” value in data set [5] is given as 2.19%.

As for `O=S(=O)([O-])[O-].[Na+].[Na+]` [Na2SO4, sodium sulfate], the “behaviour of construct at higher salt concentrations” value in data set [6] is “precipitate during buffer exchange”. As to poloxamer 188, the “SEC-HPLC forms of construct” value in data set [1] is “seemed to stabilize the IL-10 delivery construct”. For the same molecule, in data set [7], the “aggregation of target construct under shear stress” value is on record as “reduced aggregation”.

For `N.N.O=S(=O)(O)O` [NH4SO4, ammonium sulfate], the “behaviour of construct at higher salt concentrations” value in data set [6] is on record as “precipitate during buffer exchange”. For the molecule `Nc1ccc(O)c(C(=O)O)c1` [5-ASA, 5-aminosalicylic acid, reference compound], the “oxazolone-induced increase in plasma GCSF/CSF3” value in data set [8] is recorded as “attenuated”.

With polysorbate 20, the “turbidity (340-360 nm) after vortexing” value in data set [1] (0.1% in 1×PBS) is “increase in absorbance was also observed”. In addition, in data set [1], the “SEC-HPLC forms of construct” value was “most amount of monomer before vortexing”. As for `Cn1c(=O)c2c(ncn2C)n(C)c1=O` [caffeine], in data set [9] (all doses), the “plasma caffeine Tmax” value stood at 4 hours post dose. Besides, in data set [9] (cynomolgus monkey, in vivo), the “time at which absorption of caffeine was observable (capsule opening)” value is on record as 2-3 hours post dose.

B1: Drug Substance (DS) (protein)
chain: MVEEALNIFDECRSPCSLTPEPGKPIQSKLSIPSDVVLDEGVLYYSMTINDEQNDIKDEDKGESIITIGEFATVRATRHYVNQDAPFGVIHLDITTENGTKTYSYNRKEGEFAINWLVPIGEDSPASIKISVDELDQQRNIIEVPKLYSIDLDNQTLEQWKTQGNVSFSVTRPEHNIAISWPSVSYKAAQKEGSRHKRWAHWHTGLALCWLVPMDAIYNYITQQNCTLGDNWFGGSYETVAGTPKVITVKQGIEQKPVEQRIHFSKGNAMSALAAHRVCGVPLETLARSRKPRDLTDDLSCAYQAQNIVSLFVATRILFSHLDSVFTLNLDEQEPEVAERLSDLRRINENNPGMVTQVLTVARQIYNDYVTHHPGLTPEQTSAGAQAGGGGSGGGGSGGGGSPGQGTQSENSCTHFPGNLPNMLRDLRDAFSRVKTFFQMKDQLDNLLLKESLLEDFKGYLGCQALSEMIQFYLEEVMPQAENQDPDIKAHVNSLGENLKTLRLRLRRCHRFLPCENKSKAVEQVKNAFNKLQEKGIYKAMSEFDIFINYIEAYMTMKIRN
modifications: dimer
Consider B1, for which the “Purity (dimer purity)” value in data set [10] is reported as 81.2.
